# Data from ChEMBL document CHEMBL1144023, “Computer-aided discovery of anti-inflammatory thiazolidinones with dual cyclooxygenase/lipoxygenase inhibition” (J Med Chem, 2008).
# Active and inactive are the calls of the source. The calls are words filed in the database; no cut-off is given here.
# Key:
# [1] = molecular target: T1, Prostaglandin G/H synthase 1 (Ovis aries) (UniProt P05979); experiment: Inhibition of sheep COX1 at 200 uM in presence of 100 uM arachidonic acid
# T1 sequence (whole entry): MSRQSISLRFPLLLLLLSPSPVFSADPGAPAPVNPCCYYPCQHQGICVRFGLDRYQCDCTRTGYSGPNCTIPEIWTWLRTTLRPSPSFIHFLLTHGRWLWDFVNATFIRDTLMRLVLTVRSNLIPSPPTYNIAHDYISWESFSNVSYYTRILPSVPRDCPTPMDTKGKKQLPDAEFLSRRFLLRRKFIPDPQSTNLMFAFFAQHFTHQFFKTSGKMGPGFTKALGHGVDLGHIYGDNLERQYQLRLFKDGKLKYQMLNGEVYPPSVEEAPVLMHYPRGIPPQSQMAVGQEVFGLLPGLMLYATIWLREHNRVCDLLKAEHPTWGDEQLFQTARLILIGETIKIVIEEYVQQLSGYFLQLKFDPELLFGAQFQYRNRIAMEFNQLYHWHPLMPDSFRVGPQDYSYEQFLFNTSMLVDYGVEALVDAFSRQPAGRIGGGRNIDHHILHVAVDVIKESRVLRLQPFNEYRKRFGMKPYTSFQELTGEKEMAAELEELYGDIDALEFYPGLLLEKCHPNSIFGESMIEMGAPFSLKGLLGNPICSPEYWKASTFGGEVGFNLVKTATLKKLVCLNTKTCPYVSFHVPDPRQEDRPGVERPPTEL
# [2] = molecular target: T1, Prostaglandin G/H synthase 1 (Ovis aries); experiment: Inhibition of sheep COX1 at 200 uM in presence of 1 uM arachidonic acid
# Mus musculus = experiment: Antiinflammatory activity in AKR mouse assessed as inhibition of carrageenan-induced paw edema at 0.01 mmol/kg; assay type: functional
# [3] = molecular target: T2, Seed linoleate 13S-lipoxygenase-1 (Glycine max) (UniProt P08170); experiment: Inhibition of soybean LOX at 100 uM
# T2 sequence (whole entry): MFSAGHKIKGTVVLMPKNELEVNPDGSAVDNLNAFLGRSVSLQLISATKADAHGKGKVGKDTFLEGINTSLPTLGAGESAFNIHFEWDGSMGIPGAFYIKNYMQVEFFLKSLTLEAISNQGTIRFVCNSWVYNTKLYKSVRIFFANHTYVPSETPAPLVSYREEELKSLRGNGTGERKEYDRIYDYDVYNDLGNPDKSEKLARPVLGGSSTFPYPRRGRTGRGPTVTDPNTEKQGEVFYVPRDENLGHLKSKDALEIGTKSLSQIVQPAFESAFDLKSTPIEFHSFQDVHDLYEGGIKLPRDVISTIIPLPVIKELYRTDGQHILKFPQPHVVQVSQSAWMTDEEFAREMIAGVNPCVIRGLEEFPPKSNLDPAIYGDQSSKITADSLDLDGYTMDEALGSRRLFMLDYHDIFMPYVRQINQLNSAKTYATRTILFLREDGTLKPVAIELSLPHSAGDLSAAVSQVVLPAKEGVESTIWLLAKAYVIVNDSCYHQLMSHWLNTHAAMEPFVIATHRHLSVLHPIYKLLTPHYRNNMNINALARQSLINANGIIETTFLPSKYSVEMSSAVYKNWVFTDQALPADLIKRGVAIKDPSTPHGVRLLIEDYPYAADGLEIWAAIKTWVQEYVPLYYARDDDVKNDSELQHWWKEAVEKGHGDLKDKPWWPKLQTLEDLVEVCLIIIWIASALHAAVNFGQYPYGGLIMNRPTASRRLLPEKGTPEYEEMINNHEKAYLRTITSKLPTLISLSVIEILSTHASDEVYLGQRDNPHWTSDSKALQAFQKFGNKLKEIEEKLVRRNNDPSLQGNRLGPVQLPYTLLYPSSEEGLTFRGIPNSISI
# [4] = molecular target: T3, Prostaglandin G/H synthase 2 (Homo sapiens) (UniProt P35354); experiment: Inhibition of human recombinant COX2 at 200 uM
# T3 sequence (whole entry): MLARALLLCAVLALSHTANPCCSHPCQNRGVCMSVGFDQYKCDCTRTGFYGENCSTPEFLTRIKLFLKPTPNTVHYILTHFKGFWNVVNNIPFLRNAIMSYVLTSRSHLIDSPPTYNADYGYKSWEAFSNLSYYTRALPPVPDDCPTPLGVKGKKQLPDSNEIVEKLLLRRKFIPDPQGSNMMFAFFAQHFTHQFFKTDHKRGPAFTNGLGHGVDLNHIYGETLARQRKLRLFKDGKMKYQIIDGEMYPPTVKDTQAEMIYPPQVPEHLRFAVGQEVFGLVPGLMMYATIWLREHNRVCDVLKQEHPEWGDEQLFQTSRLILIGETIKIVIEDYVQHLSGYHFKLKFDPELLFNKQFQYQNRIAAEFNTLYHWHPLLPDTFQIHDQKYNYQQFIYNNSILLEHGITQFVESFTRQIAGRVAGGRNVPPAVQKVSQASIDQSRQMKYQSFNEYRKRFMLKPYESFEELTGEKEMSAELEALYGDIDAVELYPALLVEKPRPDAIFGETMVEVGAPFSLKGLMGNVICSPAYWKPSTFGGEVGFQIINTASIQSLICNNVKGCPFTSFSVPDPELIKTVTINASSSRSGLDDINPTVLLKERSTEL
# [5] = molecular target: T4, Prostaglandin G/H synthase 2 (Homo sapiens, UniProt P35354); experiment: Inhibition of human recombinant COX2
# T4 sequence (P35354 whole entry): T3 sequence (whole entry)
Activity [1],inhibition [2] [%],inhibition [3] [%],inhibition [4] [%],IC50 [5] [µM],SMILES,inhibition in vivo at 10 µmol/kg (Mus musculus) [%]
inactive,60,12.5,4.5,,O=C1N/C(=N\c2nccs2)S/C1=C/c1ccc([N+](=O)[O-])cc1,66.1
inactive,8,22.4,2.5,,COc1ccc(/C=C2/S/C(=N/c3nccs3)NC2=O)cc1,51.1
inactive,90,12,30.4,262,O=C1N/C(=N\c2nccs2)S/C1=C/c1cccc(Cl)c1,44.5
,0,,0,,O=C1CSC(Nc2nccs2)=N1,
